Data taken from BigSolDB 2.1.

OC[C@H]1O[C@@H](Oc2ccc(O)cc2)[C@H](O)[C@@H](O)[C@@H]1O
solubility (mole fraction)
Settings	283.15 K	288.15 K	293.15 K	298.15 K	303.15 K	308.15 K	313.15 K	318.15 K	323.15 K
in 2-butanone	0.000188	0.000212	0.000243	0.00026	0.000297	0.000346	0.000418	0.00045	0.000524
in acetone	0.000686	0.00071	0.000773	0.000799	0.000867	0.00101	0.00118	0.00127	0.00143
in acetonitrile	8.17e-05	9.3e-05	0.000124	0.000149	0.000163	0.000211	0.000236	0.000318	0.000362
in ethanol	0.00263	0.00268	0.0029	0.00309	0.00353	0.00419	0.00477	0.00551	0.0059
in ethyl acetate	8.03e-05	8.14e-05	8.6e-05	9.09e-05	9.62e-05	0.000104	0.000112	0.000124	0.000156
in ethylene glycol	0.0471	0.0486	0.0507	0.0527	0.0549	0.0572	0.0601	0.0631	0.0666
in isobutanol	0.000225	0.000279	0.000303	0.000394	0.000454	0.000572	0.000668	0.000911	0.00104
in isopropanol	0.000727	0.000858	0.0009	0.00108	0.00125	0.0016	0.00191	0.00216	0.00261
in methanol	0.0113	0.0117	0.0123	0.0132	0.0143	0.016	0.0176	0.0191	0.0221
in methyl acetate	0.000112	0.000129	0.00014	0.000154	0.000185	0.000239	0.000277	0.000353	0.00041
in n-butanol	0.000376	0.000499	0.000566	0.000699	0.00075	0.001	0.00115	0.00131	0.00144
in n-propanol	0.000764	0.000889	0.00103	0.00115	0.00128	0.00155	0.00181	0.00207	0.0023
